The values that follow come from article PMC10793205, “Differential transmetallation of complexes of the anti-cancer thiosemicarbazone, Dp4e4mT: effects on anti-proliferative efficacy, redox activity, oxy-myoglobin and oxy-hemoglobin oxidation” (Chemical Science, 2023).

SMILES strings stand for the structures. “Also recorded” adds a separate entry of the source. Read-outs that look alike come from different tables or passages of the source.

One series relates to human tumor xenografts. The note with it: cited from earlier work; for efficacy against a lung tumor xenograft: in vivo after oral administration.
The next series deals with SK-N-MC and AsPC-1 cells. The experiment in a line: MTT cellular proliferation assay, values stated over both tumor cell-types. The note with it: for Mean therapeutic index: average of the therapeutic indices for SK-N-MC and AsPC-1 vs MRC-5, 72 h/37 °C; for IC50: SK-N-MC and AsPC-1, after 72 h, read-out: IC50 (range over both cell-types). Format: cell-based, human. As for the experimental part: The anti-proliferative activity of Dp4e4mT relative to its complexes with Fe(III), Co(III), Ni(II), Cu(II), Zn(II), Ga(III), and Pd(II) was examined over incubation periods of 24-, 48-, and 72 h/37 °C (Table 2). These studies were performed using human SK-N-MC neuroepithelioma and AsPC-1 pancreatic adenocarcinoma cells that we have previously examined to assay other ligands.[15,28,43]
To examine the selectivity of the Dp4e4mT complexes against neoplastic versus normal mortal cells, their anti-proliferative efficacy was compared to mortal MRC-5 fibroblasts after a 72 h/37 °C incubation (Table 3). […] To further examine selectivity, an in vitro therapeutic index was calculated as per our previous investigations.[28,57,59,66,67] This parameter is derived from the ratio of the IC50 of MRC-5 cells/IC50 of SK-N-MC or AsPC-1 cells; with high ratios indicating greater selective anti-proliferative activity against neoplastic cells (Table 3). The mean therapeutic index is the average of the therapeutic indices calculated for both tumor cell-types. […] The mean therapeutic index of Dp4e4mT exceeded that obtained for clinically trialed DpC (157), as well as that of Dp44mT (112) and DFO (6). […]
(§1) All cell lines were procured from the American Type Culture Collection (ATCC; Manassas, VA). The SK-N-MC neuroepithelioma cell line and the mortal MRC-5 fibroblasts were cultured in minimum essential medium (Sigma-Aldrich), while the AsPC-1 cell line was cultured in Roswell Park Memorial Institute 1640 medium (Thermo Fisher Scientific, MA, USA). Both media were supplemented with 10% fetal calf serum, non-essential amino acids (1 mM), sodium pyruvate (1 mM), L-glutamine (2 mM), penicillin (100 U/mL), streptomycin (100 U/mL), and Fungizone (0.5 µg/mL). Cells were maintained at 37 °C in an incubator under a humidified atmosphere with 5% CO 2, following established protocols. 11 Cellular Proliferation Assay
(§2) Cellular proliferation was evaluated through the established 3-(4,5-dimethylthiazol-2-yl)-2,5-diphenyltetrazolium bromide (MTT) proliferation assay, validated by viable cell counts.12 […]
(§3) Ligands and complexes were dissolved in DMSO to make a stock solution of 10 mM, subsequently diluted in culture media. For cell culture experiments, the DMSO's maximum concentration remained below 0.5% (v/v), with no discernible impact on proliferation.12 MTT […]
(§4) Trypan blue staining.12 Analysis of the data was executed employing MARS Data Analysis Software (BMG LabTech; version 3.30). The concentration of agents necessary to inhibit cellular proliferation by 50% (IC 50) was then calculated. […]
(Tetrazolium dyes change colour on reduction, which living cells bring about.)

A further series has as its system SK-N-MC cells. Description: MTT cellular proliferation assay, SK-N-MC neuroepithelioma cells. Format: cell-based, human. The note with it: for IC50: SK-N-MC, 37 °C, MTT, mean ± SD (3 experiments); for Therapeutic index SK-N-MC: IC50 of MRC-5 cells/IC50 of SK-N-MC cells, 72 h/37 °C. As for the experimental part: The anti-proliferative activity of Dp4e4mT relative to its complexes with Fe(III), Co(III), Ni(II), Cu(II), Zn(II), Ga(III), and Pd(II) was examined over incubation periods of 24-, 48-, and 72 h/37 °C (Table 2). These studies were performed using human SK-N-MC neuroepithelioma and AsPC-1 pancreatic adenocarcinoma cells that we have previously examined to assay other ligands.[15,28,43] […]
as §1, §2, §3, §4

A short description of series [1]: Transmetallation kinetics with FeCl3 in DMSO (time-resolved UV-vis). The note with it: for Observed pseudo first order rate constant kobs, FeCl3: 10-fold excess of FeCl3 in DMSO, 25 °C; for t½, transmetallation with FeCl3: FeCl3 in DMSO. Format: physicochemical. As for the experimental part:
The capacity of the Fe(III), Ni(II), Co(III), Zn(II), Ga(III), and Pd(II) complexes of Dp4e4mT to transmetallate with Cu(II) and/or Fe(III) to result in redox active Cu(II) and Fe(III) complexes could be critical in understanding their anti-proliferative efficacy, redox activity, and ability to oxidize oxy-Mb and oxy-Hb. To examine this, LC-MS spectrometry was performed in DMSO after the addition of 1 equivalent of FeCl3 or Cu(OAc)2 and the solutions then incubated for 24 h/20 °C due to slow reaction kinetics. This solution was then diluted 1 : 1 in methanol and LC-MS performed using a mobile phase consisting of 90% MeOH, 9.9% water, and 0.1% formic acid (Fig. S2–S9 ^†). These investigations were supported by EPR studies in DMSO after the addition of 1 equivalent of FeCl3 or Cu(OAc)2 incubated under the same conditions (Fig. 3A–G). As a third method to investigate transmetallation, kinetic studies using time-resolved UV-vis spectroscopy were performed under pseudo-first order conditions with a 10-fold excess of FeCl3 or Cu(OAc)2 in DMSO (Fig. S11–S16 ^†). The pseudo-first order rate constants were calculated from the time-dependent UV-vis spectroscopy data (at all wavelengths) with Reactlab Kinetics[49] and collected in Table S2. ^† […]
Time-dependent UV-Vis absorption spectra were measured on an Agilent 8453 diode array UV−Vis spectrophotometer, equipped with a thermostatted (± 0.1 °C) multicell transport cooled by a Huber Ministat 230 recirculating cooling bath. Spectral analysis was carried out with Reactlab Kinetics. 10 […]
Table S2. Observed pseudo first order rate constants (k obs, s−1) for reactions of each Dp4e4mT complex with a 10-fold excess of Cu(OAc) 2 or FeCl 3 in DMSO or water (pH 7.4 or 5.0) at 25 °C. […]
[Co(Dp4e4mT)2]+ No reaction No reaction No reaction No reaction […]
a Reaction could not be deciphered by UV-Vis spectroscopy; bchlorido ligand hydrolysis

The mark [2] stands for this setting: listed as Dp4e4mT Co(III) complex.

By IC50 is commonly meant the concentration at which inhibition is half-maximal. With `CN(C)C(=S)NN=C(c1ccccn1)c1ccccn1` [Dp44mT, di-2-pyridylketone 4,4-dimethyl-3-thiosemicarbazone, reference compound], the “inhibition of human tumor xenografts” value in the series with human tumor xenografts (nude mice, 0.4 mg per kg per day) is “selectively inhibited a variety of human tumor xenografts in nude mice”. This compound also yielded a Mean therapeutic index with SK-N-MC and AsPC-1 cells of 112. The half-inhibitory concentration (IC50) is greater than 25000 nM with SK-N-MC cells (Homo sapiens, 24 h); 43 ± 6 nM in the series with SK-N-MC cells (Homo sapiens, 48 h); 6 ± 1 nM in the series on SK-N-MC cells (Homo sapiens, 72 h). Moreover, the “Therapeutic index SK-N-MC” value with SK-N-MC cells is reported as 152.
As to `CCN(C)C([S-])=NN=C(c1ccccn1)c1ccccn1.CCN(C)C([S-])=NN=C(c1ccccn1)c1ccccn1.[Ni+2]` [[Ni(Dp4e4mT)2]], the IC50 was 18 to 76 nM in the series on SK-N-MC and AsPC-1 cells; greater than 25000 nM in the series on SK-N-MC cells (24 h); 75 ± 25 nM in the series on SK-N-MC cells (48 h); 18 ± 6 nM in the series on SK-N-MC cells (72 h). The Mean therapeutic index with SK-N-MC and AsPC-1 cells was 156. For the same compound, in series [1], the “Observed pseudo first order rate constant kobs, FeCl3” value was “No reaction; also recorded: unreactive”. For the same compound, the “extent of reaction with Fe(III)” value in series [1] (DMSO, after 3 days) is roughly 20%. In addition, the “Therapeutic index SK-N-MC” value in the series on SK-N-MC cells was determined as 250.
For `CCN(C)C([S-])=NN=C(c1ccccn1)c1ccccn1.CCN(C)C([S-])=NN=C(c1ccccn1)c1ccccn1.[Ga+3]` [[Ga(Dp4e4mT)2]^+], in the series on SK-N-MC and AsPC-1 cells, the Mean therapeutic index is on record as 173. Moreover, in series [1], the “t½, transmetallation with FeCl3” value is 3 to 4 h. For the same compound, the “Therapeutic index SK-N-MC” value with SK-N-MC cells is listed as 192. For the same compound, the IC50 with SK-N-MC cells (24 h) is 16220 ± 7 nM; in the series with SK-N-MC cells (24 h, listed as Dp4e4mT Ga(III) complex), 16200 to 19400 nM; in the series with SK-N-MC cells (48 h) it was 43 ± 6 nM; with SK-N-MC cells (72 h) it was 4 ± 1 nM.
As for `CCN(C)C([S-])=NN=C(c1ccccn1)c1ccccn1.CCN(C)C([S-])=NN=C(c1ccccn1)c1ccccn1.[Fe+3]` [[Fe(Dp4e4mT)2]^+], the Mean therapeutic index in the series with SK-N-MC and AsPC-1 cells is 9; in the series with SK-N-MC and AsPC-1 cells (listed as Dp4e4mT Fe(III) complex), 3–9. The “Therapeutic index SK-N-MC” value in the series with SK-N-MC cells was found to be 9. Also, the IC50 with SK-N-MC cells (24 h) amounted to 2680 ± 71 nM; with SK-N-MC cells (48 h), 1530 ± 37 nM; with SK-N-MC cells (72 h), 214 ± 5 nM.
On to `CN(C(=S)NN=C(c1ccccn1)c1ccccn1)C1CCCCC1` [DpC, di-2-pyridylketone 4-cyclohexyl-4-methyl-3-thiosemicarbazone, reference compound], for which the “efficacy against a lung tumor xenograft” value in the series on human tumor xenografts is on record as “potent efficacy against a lung tumor xenograft”. The IC50 with SK-N-MC and AsPC-1 cells (Homo sapiens) is 18 to 28 nM; with SK-N-MC cells (Homo sapiens, 24 h) it was 22300 ± 83 nM; in the series with SK-N-MC cells (Homo sapiens, 48 h), 88 ± 7 nM; in the series with SK-N-MC cells (Homo sapiens, 72 h), 28 ± 9 nM. The compound further had a Mean therapeutic index in the series on SK-N-MC and AsPC-1 cells of 157. Moreover, the “Therapeutic index SK-N-MC” value in the series with SK-N-MC cells came to 149.
Take `CCN(C)C(=S)NN=C(c1ccccn1)c1ccccn1` [Dp4e4mT, di-2-pyridylketone-4-ethyl-4-methyl-3-thiosemicarbazone]: the “efficacy against a lung tumor xenograft” value in the series with human tumor xenografts is “potent efficacy against a lung tumor xenograft”. In the series with SK-N-MC and AsPC-1 cells, this compound had a Mean therapeutic index of 210. In addition, the IC50 with SK-N-MC cells (Homo sapiens, 24 h) is greater than 25000 nM; in the series on SK-N-MC cells (Homo sapiens, 48 h) it was 43 ± 6 nM; with SK-N-MC cells (Homo sapiens, 72 h), 6 ± 1 nM. Besides, the “Therapeutic index SK-N-MC” value with SK-N-MC cells was determined as 301.
On to `CCN(C)C([S-])=NN=C(c1ccccn1)c1ccccn1.CCN(C)C([S-])=NN=C(c1ccccn1)c1ccccn1.[Zn+2]` [[Zn(Dp4e4mT)2]], for which, in the series with SK-N-MC and AsPC-1 cells, the Mean therapeutic index worked out at 156. For the same compound, in series [1], the “Observed pseudo first order rate constant kobs, FeCl3” value was found to be 0.00891 s⁻¹ and the “t½, transmetallation with FeCl3” value was roughly 0.017 h. The “Therapeutic index SK-N-MC” value in the series with SK-N-MC cells is on record as 187.
Consider `CCN(C)C([S-])=NN=C(c1ccccn1)c1ccccn1.CCN(C)C([S-])=NN=C(c1ccccn1)c1ccccn1.[Co+3]` [[Co(Dp4e4mT)2]^+], for which the 50% inhibitory concentration (IC50) in the series with SK-N-MC and AsPC-1 cells (setting [2]) is 262 to 1570 nM; in the series on SK-N-MC and AsPC-1 cells it was 818 to 1570 nM; in the series on SK-N-MC cells (24 h), 5498 ± 4 nM; in the series on SK-N-MC cells (48 h) it was 1470 ± 61 nM; in the series with SK-N-MC cells (72 h) it was 818 ± 51 nM. Also, the Mean therapeutic index in the series on SK-N-MC and AsPC-1 cells was 3; in the series with SK-N-MC and AsPC-1 cells (setting [2]), 3–9. Moreover, the “Observed pseudo first order rate constant kobs, FeCl3” value in series [1] was “No reaction”. For the same compound, in the series with SK-N-MC cells, the “Therapeutic index SK-N-MC” value is 4.
As to `CCN(C)C([S-])=NN=C(c1ccccn1)c1ccccn1.[Cl-].[Cu+2]` [[Cu(Dp4e4mT)Cl]], in the series with SK-N-MC and AsPC-1 cells, the Mean therapeutic index is on record as 130. Further, in series [1], the “Observed pseudo first order rate constant kobs, FeCl3” value is “No reaction”. Further, the “Therapeutic index SK-N-MC” value in the series on SK-N-MC cells amounted to 130. The half-inhibitory concentration (IC50) was 492 ± 34 nM in the series with SK-N-MC cells (24 h), 31 ± 8 nM with SK-N-MC cells (48 h) and 3 ± 1 nM with SK-N-MC cells (72 h).
For `CCN(C)C([S-])=NN=C(c1ccccn1)c1ccccn1.[Cl-].[Pd+2]` [[Pd(Dp4e4mT)Cl]], the 50% inhibitory concentration (IC50) with SK-N-MC and AsPC-1 cells was 262 to 1570 nM; with SK-N-MC cells (24 h) it was greater than 25000 nM; in the series with SK-N-MC cells (48 h) it was 661 ± 62 nM; in the series on SK-N-MC cells (72 h), 285 ± 121 nM. Besides, the Mean therapeutic index in the series with SK-N-MC and AsPC-1 cells is reported as 3; in the series with SK-N-MC and AsPC-1 cells (listed as Dp4e4mT Pd(II) complex) it was 3–9. The “Observed pseudo first order rate constant kobs, FeCl3” value in series [1] is recorded as “No reaction”. The “Therapeutic index SK-N-MC” value in the series with SK-N-MC cells is reported as 3.
